In BigSolDB 2.1:

Cc1ccc(S(C)(=O)=O)cc1
solubility (mole fraction)
Details | in DMF | in acetone | in acetonitrile | in ethanol | in ethyl acetate | in isopropanol | in methanol | in n-butanol | in n-propanol
278.15 K | 0.123 | 0.0999 | 0.084 | 0.00721 | 0.0611 | 0.00415 | 0.0111 | 0.00408 | 0.00596
283.15 K | 0.146 | 0.118 | 0.102 | 0.00993 | 0.0732 | 0.00579 | 0.0153 | 0.00599 | 0.00839
288.15 K | 0.177 | 0.144 | 0.13 | 0.0137 | 0.0872 | 0.008 | 0.0207 | 0.00869 | 0.012
293.15 K | 0.208 | 0.172 | 0.155 | 0.018 | 0.103 | 0.011 | 0.0282 | 0.0125 | 0.016
298.15 K | 0.244 | 0.199 | 0.183 | 0.0241 | 0.123 | 0.0149 | 0.0376 | 0.0178 | 0.022
303.15 K | 0.282 | 0.234 | 0.218 | 0.0321 | 0.144 | 0.0203 | 0.05 | 0.0252 | 0.03
308.15 K | 0.332 | 0.274 | 0.258 | 0.042 | 0.171 | 0.0275 | 0.0657 | 0.0353 | 0.04
313.15 K | 0.389 | 0.322 | 0.3 | 0.055 | 0.203 | 0.0367 | 0.0858 | 0.0492 | 0.052
318.15 K | 0.45 | 0.379 | 0.359 | 0.0712 | 0.236 | 0.0491 | 0.111 | 0.0681 | 0.069
